Measured values taken from patent US8563052B2, “Method for preparing gintonin, which is a novel glycolipoproetin from panax ginseng, and gintonin, which is a novel glycolipoprotein, prepared by the method” (Konkuk University Industrial Cooperation Corp., priority 2009, dated 2013).

Assays:
[1] = tested on: gintonin-induced CaCC currents; experiment: Effects of PLC inhibitor, IP3 receptor antagonist or Ca2+ chelator on crude gintonin-mediated CaCC activation in Xenopus oocytes; type: cell-based, Xenopus laevis; conditions: for crude gintonin-induced CaCC currents, % of the control: in presence of the PLC inhibitor or inactive analog
Method: Two-electrode voltage-clamp recordings were obtained from individual oocytes placed in a small Plexiglas net chamber (0.5 ml). Electrophysiological experiments were performed at room temperature using microelectrodes filled with 3 M KCl (resistance of 0.2-0.7 MΩ) and an Oocyte Clamp amplifier (OC-725C; Warner Instrument, Hamden, Conn.), followed by recording CaCC at −80 mV holding potential.
For this, the effect of the IP3 receptor antagonist, membrane permeable 2-aminoethxydiphenyl borate (2-APB), on gintonin-induced CaCC activation was examined.

[2] = tested on: gintonin-mediated elevation of [Ca^2+]i in mouse EAT cells; experiment: Effects of active or inactive PLC inhibitors on gintonin-mediated [Ca2+]i elevation in mouse EAT cells; type: cell-based; conditions: for effect on the action of gintonin on [Ca^2+]i: mouse EAT cells, irrespective of the presence of extracellular Ca^2+; for effect on gintonin (100 ng/mL)-mediated elevation of [Ca^2+]i: pretreatment 10 μM, Ca^2+ buffer (1.5 mM Ca^2+) and Ca^2+ free buffer (0.2 mM EGTA), n=4-5/group
Method: Data are represented as means ±SEM (n=4-5/group).
[Ca^2+]i was estimated in fura 2-loaded cells in suspension using an RF-5300PC intracellular ion measurement system (Shimadzu Corporation, Japan). The fura 2-AM loaded cells were diluted with an experimental medium to a final density of 2˜4×10^6 cells/mL and transferred to polystyrene cuvettes (Elkay Ultra-VU). The cells were stirred using Teflon-coated magnets, and the cuvette housing was thermostatically controlled at 37° C. The excitation wavelengths were alternated between 340 and 380 nm under computer control. Emission was detected at 510 nm. Excitation and emission slit widths were 5 nm. Background correction was performed as described by Jorgensen et al. Digitonin and EGTA were used as concentration adjustment reagents to make a condition in which fura 2 completely combines with and disassociates from Ca^2+.

## COc1ccc2c(c1)CC[C@@H]1[C@@H]2CC[C@]2(C)[C@@H](NCCCCCCN3C(=O)CCC3=O)CC[C@@H]12 [U-73343]
[1]
  crude gintonin-induced CaCC currents, % of the control: 97.2±0.2%
[2]
  effect on the action of gintonin on [Ca^2+]i: not
  effect on gintonin (100 ng/mL)-mediated elevation of [Ca^2+]i: not

## CC(=O)OCOC(=O)CN(CC(=O)OCOC(C)=O)c1ccccc1OCCOc1ccccc1N(CC(=O)OCOC(C)=O)CC(=O)OCOC(C)=O [BAPTA-AM, 1,2-bis-(2-aminophenoxy)ethane-N,N,N′,N′-tetraacetic acid acetoxymethyl ester]
[1]; 10 μM final
  effect on gintonin-mediated CaCC activation: almost extinguished

## NCCOB(c1ccccc1)c1ccccc1 [2-APB, 2-aminoethxydiphenyl borate]
[1]; P<0.01 vs control current
  inward CaCC currents induced by gintonin after addition of 2-APB: 0.03±0.01 μA
[1]; addition of 2-APB
  effect on gintonin-induced inward CaCC currents: almost completely abrogated

## COc1ccc2c(c1)CC[C@@H]1[C@@H]2CC[C@]2(C)[C@@H](NCCCCCCN3C(=O)C=CC3=O)CC[C@@H]12 [U-73122]
[1]
  crude gintonin-induced CaCC currents, % of the control: 3.9±0.3%
[2]
  effect on the action of gintonin on [Ca^2+]i: almost abrogate
  effect on gintonin (100 ng/mL)-mediated elevation of [Ca^2+]i: blocked
